In the Kinase Knowledgebase extract (Sharma et al. 2016):
Values belong to the molecule of their own block, whether it stands above or below them.

Tests used:
[1] = target: PIK3CA (human) (UniProt P42336); experiment: Enzyme Assay
[2] = target: PIK3CD (Human) (UniProt O00329); experiment: Enzyme Assay
[3] = target: PIK3CG (human) (UniProt P48736); experiment: Enzyme Assay
[4] = target: CDK2 (human) (UniProt P24941); experiment: Cell-Based Assay
[5] = target: PIK3CG (human) (UniProt P48736); experiment: Assessment of PIK3CG Kinase Activity
[6] = target: ROCK2 (human) (UniProt O75116); experiment: Enzyme Assay
[7] = target: PIK3CA (human) (UniProt P42336); experiment: Assessment of PIK3CA Kinase Activity
[8] = target: PIK3CD (Human) (UniProt O00329); experiment: Assessment of PIK3CD Kinase Activity
[9] = target: PIK3CD (Human) (UniProt O00329); experiment: Inhibition of PIK3CD Kinase Activity
[10] = target: CDK2 (UniProt P24941); experiment: Enzyme Assay
[11] = target: MAPK14 (human) (UniProt Q16539); experiment: Enzyme Assay; settings: concentration not given here
Sequence of MAPK14 (human) (Q16539 whole entry, looked up): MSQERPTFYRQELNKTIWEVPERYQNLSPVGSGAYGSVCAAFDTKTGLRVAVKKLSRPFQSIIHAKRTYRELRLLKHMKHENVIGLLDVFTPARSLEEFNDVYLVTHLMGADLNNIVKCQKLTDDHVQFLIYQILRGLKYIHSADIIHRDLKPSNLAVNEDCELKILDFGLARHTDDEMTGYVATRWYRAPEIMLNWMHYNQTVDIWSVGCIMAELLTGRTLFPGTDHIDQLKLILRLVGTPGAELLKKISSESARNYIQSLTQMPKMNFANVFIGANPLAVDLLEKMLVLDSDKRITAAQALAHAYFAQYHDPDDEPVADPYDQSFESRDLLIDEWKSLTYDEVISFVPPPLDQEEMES

Sequence of PIK3CA (human) (P42336 whole entry, looked up): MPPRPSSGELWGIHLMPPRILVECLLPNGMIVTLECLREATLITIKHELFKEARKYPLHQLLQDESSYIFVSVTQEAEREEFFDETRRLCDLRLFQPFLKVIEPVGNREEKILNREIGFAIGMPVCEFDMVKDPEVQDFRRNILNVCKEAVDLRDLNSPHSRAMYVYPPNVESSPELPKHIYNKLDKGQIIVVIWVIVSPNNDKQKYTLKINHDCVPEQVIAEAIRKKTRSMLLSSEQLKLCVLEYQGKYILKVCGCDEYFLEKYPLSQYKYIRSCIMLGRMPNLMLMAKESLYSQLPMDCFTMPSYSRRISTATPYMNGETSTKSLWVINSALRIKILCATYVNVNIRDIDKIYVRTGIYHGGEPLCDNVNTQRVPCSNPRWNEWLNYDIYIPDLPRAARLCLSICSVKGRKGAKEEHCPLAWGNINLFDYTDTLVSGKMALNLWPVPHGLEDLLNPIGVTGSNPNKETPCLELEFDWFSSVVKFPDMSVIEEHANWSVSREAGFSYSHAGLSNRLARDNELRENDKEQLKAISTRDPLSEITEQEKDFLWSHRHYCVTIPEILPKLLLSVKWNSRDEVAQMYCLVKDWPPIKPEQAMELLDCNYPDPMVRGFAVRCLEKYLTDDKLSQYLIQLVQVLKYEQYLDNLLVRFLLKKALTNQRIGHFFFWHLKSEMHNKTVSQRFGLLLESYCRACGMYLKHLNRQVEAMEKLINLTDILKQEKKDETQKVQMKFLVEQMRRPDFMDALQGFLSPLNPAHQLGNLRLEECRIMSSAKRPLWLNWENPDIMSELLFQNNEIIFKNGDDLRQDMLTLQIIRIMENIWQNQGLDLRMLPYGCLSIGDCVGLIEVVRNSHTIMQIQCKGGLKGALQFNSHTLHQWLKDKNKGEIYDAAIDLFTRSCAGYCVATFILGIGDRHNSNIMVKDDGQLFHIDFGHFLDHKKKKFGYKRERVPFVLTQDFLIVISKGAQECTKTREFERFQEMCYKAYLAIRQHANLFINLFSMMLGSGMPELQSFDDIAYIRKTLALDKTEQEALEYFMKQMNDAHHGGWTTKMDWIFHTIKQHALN
Sequence of ROCK2 (human) (O75116 whole entry, looked up): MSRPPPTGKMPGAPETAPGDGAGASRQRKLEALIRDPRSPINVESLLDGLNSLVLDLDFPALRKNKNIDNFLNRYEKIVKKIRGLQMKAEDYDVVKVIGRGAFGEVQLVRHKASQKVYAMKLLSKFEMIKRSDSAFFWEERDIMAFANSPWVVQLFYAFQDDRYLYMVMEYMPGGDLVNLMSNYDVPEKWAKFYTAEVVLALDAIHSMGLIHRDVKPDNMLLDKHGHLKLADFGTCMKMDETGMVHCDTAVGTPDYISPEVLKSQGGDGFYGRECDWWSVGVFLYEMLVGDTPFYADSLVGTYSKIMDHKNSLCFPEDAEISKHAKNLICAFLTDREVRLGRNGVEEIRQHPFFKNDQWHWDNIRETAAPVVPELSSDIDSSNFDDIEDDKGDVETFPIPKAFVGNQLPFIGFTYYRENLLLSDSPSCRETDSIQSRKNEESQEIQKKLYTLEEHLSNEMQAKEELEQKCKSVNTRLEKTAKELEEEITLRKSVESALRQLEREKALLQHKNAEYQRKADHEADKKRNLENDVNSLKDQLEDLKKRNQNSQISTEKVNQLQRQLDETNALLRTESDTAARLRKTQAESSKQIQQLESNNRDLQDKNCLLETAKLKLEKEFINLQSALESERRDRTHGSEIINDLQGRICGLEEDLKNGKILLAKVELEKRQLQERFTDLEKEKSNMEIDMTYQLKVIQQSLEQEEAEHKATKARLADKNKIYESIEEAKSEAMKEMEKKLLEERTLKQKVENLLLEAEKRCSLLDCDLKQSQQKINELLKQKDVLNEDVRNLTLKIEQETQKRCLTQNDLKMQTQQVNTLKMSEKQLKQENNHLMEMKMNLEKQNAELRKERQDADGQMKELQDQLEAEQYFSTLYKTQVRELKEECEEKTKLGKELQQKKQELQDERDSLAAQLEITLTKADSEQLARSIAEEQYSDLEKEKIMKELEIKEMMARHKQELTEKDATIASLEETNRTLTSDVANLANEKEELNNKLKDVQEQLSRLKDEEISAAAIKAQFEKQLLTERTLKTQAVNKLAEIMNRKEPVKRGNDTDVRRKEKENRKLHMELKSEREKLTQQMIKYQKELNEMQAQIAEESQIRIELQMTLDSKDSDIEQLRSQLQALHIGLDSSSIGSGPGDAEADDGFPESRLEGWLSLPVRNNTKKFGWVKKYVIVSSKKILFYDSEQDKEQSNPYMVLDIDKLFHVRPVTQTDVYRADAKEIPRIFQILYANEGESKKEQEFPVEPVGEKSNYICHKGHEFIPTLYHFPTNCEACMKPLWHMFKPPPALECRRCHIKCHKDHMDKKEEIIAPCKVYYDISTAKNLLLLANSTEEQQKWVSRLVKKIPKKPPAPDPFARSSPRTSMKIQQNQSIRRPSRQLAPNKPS
Sequence of PIK3CG (human) (P48736 whole entry, looked up): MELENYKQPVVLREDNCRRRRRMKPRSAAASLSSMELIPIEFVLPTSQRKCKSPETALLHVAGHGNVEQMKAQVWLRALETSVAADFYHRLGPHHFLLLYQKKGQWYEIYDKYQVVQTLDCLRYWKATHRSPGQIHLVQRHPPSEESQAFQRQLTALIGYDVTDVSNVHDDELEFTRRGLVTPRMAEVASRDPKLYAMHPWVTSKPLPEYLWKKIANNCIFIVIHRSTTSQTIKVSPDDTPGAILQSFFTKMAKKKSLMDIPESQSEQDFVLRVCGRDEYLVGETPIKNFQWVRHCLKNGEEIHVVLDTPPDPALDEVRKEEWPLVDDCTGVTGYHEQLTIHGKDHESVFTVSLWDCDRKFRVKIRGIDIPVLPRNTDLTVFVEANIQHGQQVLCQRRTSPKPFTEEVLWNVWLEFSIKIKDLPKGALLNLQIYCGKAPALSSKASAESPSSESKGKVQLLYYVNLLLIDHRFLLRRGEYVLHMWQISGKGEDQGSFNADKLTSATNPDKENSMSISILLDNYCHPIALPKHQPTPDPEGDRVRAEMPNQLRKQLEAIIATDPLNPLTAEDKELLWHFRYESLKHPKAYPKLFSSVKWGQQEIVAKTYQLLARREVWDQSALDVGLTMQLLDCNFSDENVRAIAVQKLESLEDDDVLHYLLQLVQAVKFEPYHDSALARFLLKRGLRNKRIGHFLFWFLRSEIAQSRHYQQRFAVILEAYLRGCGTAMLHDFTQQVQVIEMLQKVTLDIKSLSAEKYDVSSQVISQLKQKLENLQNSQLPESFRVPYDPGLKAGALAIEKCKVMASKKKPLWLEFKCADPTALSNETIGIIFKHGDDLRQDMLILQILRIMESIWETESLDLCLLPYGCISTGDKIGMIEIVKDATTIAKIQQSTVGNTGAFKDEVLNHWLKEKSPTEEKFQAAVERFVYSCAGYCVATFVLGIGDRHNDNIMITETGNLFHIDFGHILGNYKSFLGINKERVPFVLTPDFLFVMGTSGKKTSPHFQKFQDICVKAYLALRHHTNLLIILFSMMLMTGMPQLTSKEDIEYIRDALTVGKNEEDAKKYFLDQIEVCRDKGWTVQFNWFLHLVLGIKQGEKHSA
Sequence of PIK3CD (Human) (O00329 whole entry, looked up): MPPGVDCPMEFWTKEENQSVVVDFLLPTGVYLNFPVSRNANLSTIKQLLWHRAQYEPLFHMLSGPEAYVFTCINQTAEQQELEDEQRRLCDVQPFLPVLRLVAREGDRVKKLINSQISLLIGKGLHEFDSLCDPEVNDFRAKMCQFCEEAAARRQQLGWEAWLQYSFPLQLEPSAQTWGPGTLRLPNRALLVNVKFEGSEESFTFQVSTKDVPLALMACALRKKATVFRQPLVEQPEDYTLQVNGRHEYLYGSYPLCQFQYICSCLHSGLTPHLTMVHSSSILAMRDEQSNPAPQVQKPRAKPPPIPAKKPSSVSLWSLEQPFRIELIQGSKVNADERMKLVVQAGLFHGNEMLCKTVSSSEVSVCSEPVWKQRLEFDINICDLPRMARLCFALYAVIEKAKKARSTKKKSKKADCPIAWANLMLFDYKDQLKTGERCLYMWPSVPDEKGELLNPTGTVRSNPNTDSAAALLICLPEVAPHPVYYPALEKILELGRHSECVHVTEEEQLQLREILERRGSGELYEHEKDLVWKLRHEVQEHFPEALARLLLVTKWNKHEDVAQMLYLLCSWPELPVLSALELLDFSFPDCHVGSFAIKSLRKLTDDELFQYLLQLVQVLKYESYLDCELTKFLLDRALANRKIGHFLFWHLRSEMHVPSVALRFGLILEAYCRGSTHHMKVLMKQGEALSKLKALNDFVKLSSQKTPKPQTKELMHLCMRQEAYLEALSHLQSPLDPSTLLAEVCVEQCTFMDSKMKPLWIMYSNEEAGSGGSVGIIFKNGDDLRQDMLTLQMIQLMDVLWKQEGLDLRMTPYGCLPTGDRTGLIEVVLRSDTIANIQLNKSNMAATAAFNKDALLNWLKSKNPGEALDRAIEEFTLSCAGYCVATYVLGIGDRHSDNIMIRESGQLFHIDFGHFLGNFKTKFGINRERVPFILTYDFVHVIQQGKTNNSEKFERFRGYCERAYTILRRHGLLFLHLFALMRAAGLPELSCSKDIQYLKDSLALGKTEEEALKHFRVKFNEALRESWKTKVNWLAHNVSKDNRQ

IC50 [6]: 1 nM
Compound: COc1cccc([C@@H](C)NC(=O)c2cc3ccc(-c4cn[nH]c4)cc3[nH]2)c1

Kd [3]: 48 nM
Compound: CC(C)CCN1c2nc(Nc3cc(F)c(O)c(F)c3)ncc2N(C)C(=O)[C@H]1C

IC50 [8]: ≤ 50 nM
Compound: Cc1ncc2c(Cl)cc(C(C)Nc3ncnc4[nH]cnc34)c(-c3cccc(F)c3)n12 (stereo unspecified)

IC50 [9]: 8 nM
Compound: C[C@H](Nc1ncnc2[nH]cnc12)c1cc2cccc(Cl)c2nc1-c1cc(F)ccc1Cl

IC50 [5]: 148 nM
Compound: Cc1nc(Nc2cc(C(=O)O)n(CCc3ccccc3)c2)nc2c1ccc(=O)n2C

IC50 ([4]; mcf-7): 230 nM
Compound: COCCNS(=O)(=O)c1ccc(Nc2nccc(-c3c(C)nc4cccnn34)n2)cc1

IC50 [9]: 20000 nM
Compound: CN1C(=O)COc2ccc(/C=C3\SC(=O)NC3=O)cc21

IC50 [3]: < 100 nM
Compound: Nc1nc2cc(-c3nn(C4CCOCC4)c4ncnc(N)c34)ccc2o1

IC50 [9]: 23 nM
Compound: C[C@H](Nc1ncnc2[nH]cnc12)c1cc2ccc(F)cc2nc1-c1cccnc1

IC50 [5]: 1840 nM
Compound: CC(=O)Nc1nc(C)c(-c2ccc(S(C)(=O)=O)cn2)s1

IC50 [6]: < 100 nM
Compound: C.COC(=O)c1ccc(C(=O)Nc2cccc(CNC3CCC(Nc4cccc5cnccc45)CC3)c2)cc1 (stereo unspecified)

IC50 [7]: 2420 nM | IC50 [5]: 1610 nM
Compound: O=c1n(Cc2ccccc2)c2nc(-c3cccc(O)c3)nc(C3=CCOCC3)c2n1Cc1ccccc1

Ki [6]: 3980 nM
Compound: Oc1ccc(-c2nc(-c3ccc(F)cc3)c(-c3ccncc3)[nH]2)cc1

IC50 [9]: 20000 nM
Compound: O=C1NC(=O)/C(=C/c2ccc3c(c2)NCCO3)S1

IC50 [1]: 71 nM | IC50 [2]: 35 nM | IC50 [3]: 350 nM
Compound: Cn1c(=O)n(-c2ccc(C(C)(C)C#N)cc2)c2c3cc(C#Cc4cccnc4)ccc3ncc21

IC50 [5]: 522 nM
Compound: COc1cc2sc(C(=O)Nc3nnn[nH]3)c(SCCc3ccccc3)c2cc1OC

Continued, molecule first:

Compound: O=C(Nc1cccc(CO)c1)Nc1cccc(-c2nc(N3CCOCC3)c3ncccc3n2)c1
IC50 [1]: 5800 nM | IC50 [2]: 836 nM | IC50 [3]: 22000 nM

Compound: C[C@@H](Nc1nc(N[C@H]2CC[C@H](N)CC2)nc2c1ncn2C1CCCC1)c1ccccc1
IC50 ([4]; a 549): 6100 nM | IC50 ([4]; dms-114): 6600 nM | IC50 ([4]; du-145): 5600 nM | IC50 ([4]; ht-29): 5700 nM | IC50 ([4]; mcf-7): 3300 nM | IC50 ([4]; mda-mb-231): 5200 nM | IC50 ([4]; pc-3): 3900 nM

Compound: COc1ccc(C2=NNC(=O)C2=NNc2ccccc2)cn1
Ki [5]: 540 nM

Compound: COCCN(C)S(=O)(=O)c1ccc(Nc2nccc(-c3cnc4cccnn34)n2)cc1
IC50 ([4]; mcf-7): > 5000 nM

Compound: COc1cc2sc(C(=O)Nc3nnn[nH]3)c(SCCc3ccccc3)c2cc1C
IC50 [5]: 215 nM

Compound: COc1cc2c(Sc3cccc(Cl)c3)c(C(=O)Nc3nnn[nH]3)sc2cc1C
IC50 [5]: 170 nM

Compound: COc1ncc(-c2ccc3nccc(-c4ccnnc4)c3c2)cc1NS(=O)(=O)c1ccc(F)cc1F
Ki [3]: 0.06 nM

Compound: COC(=O)Nc1nc2ccc(C(=O)c3cccs3)cc2[nH]1
Kd [5]: 1500 nM

Compound: CNC(=O)C[C@@H](NC(=O)c1ccc(-c2cn[nH]c2)c(C)c1)c1ccccc1
IC50 [6]: 21.7 nM

Compound: O=C(Cc1ccc(-c2ccc(C(=O)O)cc2)cc1)Nc1cc(C2CC2)[nH]n1
IC50 ([4]; a2780): > 20000 nM

Compound: O=C(NCCO)Oc1ccc(-c2nc(N3CCOCC3)c3ccn(CC(F)(F)F)c3n2)cc1
IC50 [7]: 570 nM | IC50 [5]: 1720 nM

Compound: COc1ccc(C2=NNC(=O)C2=NNc2cccnc2)cc1
Ki [5]: 1000 nM

Compound: Cc1nc(Nc2cc(C(=O)O)n(CCc3ccccc3)c2)nc2c1cc(F)c(=O)n2C1CCCC1
IC50 [5]: 15 nM

Compound: COc1ccc2sc(C(=O)Nc3nnn[nH]3)c(Sc3ccoc3C)c2c1
IC50 [5]: 2210 nM

Compound: COc1cc(C#Cc2cc(NC(=O)NCCOCC3CC3)nn2C)cnc1OC
Ki [5]: < 100 nM

Compound: CN(C)CCCNS(=O)(=O)c1ccc(Nc2nccc(-c3cnc4cccnn34)n2)cc1
IC50 ([4]; mcf-7): 430 nM

Compound: CCOC(=O)c1cc(Nc2nc(C)c3ccc(=O)n(C)c3n2)cn1CCc1ccccc1
IC50 [5]: 63 nM

Compound: COc1cccc(CC(=O)Nc2cc(C3CC3)[nH]n2)c1
IC50 ([4]; a2780): > 20000 nM

Compound: Nc1nc2ccc(-c3cncc(NS(=O)(=O)c4cccc5ccccc45)c3)cn2n1
IC50 [5]: 7.94 nM | IC50 [8]: 126 nM

Compound: C[C@H](Nc1ncnc(N)c1C#N)c1nc2ccc(F)cc2c(C(=O)O)c1-c1ccccc1
Ki [8]: 74.2 nM

Compound: NS(=O)(=O)c1ccc(Nc2nccc(-c3cnc4ccccn34)n2)cc1
IC50 [10]: 3 nM | IC50 ([4]; mcf-7): 260 nM

Compound: CCOc1ccc2sc(C(=O)Nc3nnn[nH]3)c(SCCc3ccccc3)c2c1
IC50 [5]: 2850 nM

Compound: COc1ccc2c(c1)CN(c1nc3c(c(Nc4ccc5[nH]ncc5c4)n1)CNC3)C2
IC50 [6]: 24300 nM

Compound: CO[C@H]1C[C@@H]2CC[C@@H](C)[C@@](O)(O2)C(=O)C(=O)N2CCCC[C@H]2C(=O)O[C@H]([C@H](C)C[C@@H]2CC[C@@H](O)[C@H](OC)C2)CC(=O)[C@H](C)C=C(C)[C@@H](O)[C@@H](OC)C(=O)[C@H](C)C[C@H](C)C=CC=CC=C1C
activity [11]: 93% | activity ([6]; concentration not given here): 106%

Compound: CN1CCC(c2ccccc2CC(C)(C)Nc2nc(N3CCOCC3)nc(-n3c(C(F)F)nc4ccccc43)n2)C1 (stereo unspecified)
IC50 [9]: < 100 nM
